Several values for one entry are separate records, joined by “and”; a condition that tells them apart may be missing. Equal values may be shown once. Inconclusive results and toxic doses are left out. How the source made its calls: active means survival T/C of 150% or more; inactive means T/C below 125% in these data.
Test system: P388 leukemia ip, CD2F1 mice, survival T/C
Test: NCI In Vivo Anticancer Drug Screen. Data for tumor model P388 Leukemia (intraperitoneal) in CD2F1 (CDF1) mice
Settings: endpoint: median survival time, higher = longer survival
Summary of the method: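 Mice carrying the transplanted tumor received test compound or vehicle. Survival was recorded in each group, and the value is the treated-group measurement divided by that of the vehicle-treated control group.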

[1] = dose: 50.0 mg/kg/injection, schedule: Q01DX005 (ip), vehicle: Klucel (hydroxypropylcellulose) (HPC)
[2] = dose: 100.0 mg/kg/injection, schedule: Q01DX005 (ip), vehicle: Klucel (hydroxypropylcellulose) (HPC)
[3] = dose: 200.0 mg/kg/injection, schedule: Q01DX005 (ip), vehicle: Klucel (hydroxypropylcellulose) (HPC)
[4] = dose: 50.0 mg/kg/injection, schedule: Q01DX009 (ip), vehicle: saline with Tween-80
[5] = dose: 100.0 mg/kg/injection, schedule: Q01DX009 (ip), vehicle: saline with Tween-80
[6] = dose: 200.0 mg/kg/injection, schedule: Q01DX009 (ip), vehicle: saline with Tween-80
[7] = dose: 12.5 mg/kg/injection, schedule: Q01DX009 (ip), vehicle: saline with Tween-80
[8] = dose: 25.0 mg/kg/injection, schedule: Q01DX009 (ip), vehicle: saline with Tween-80
[9] = dose: 50.0 mg/kg/injection, schedule: Q01DX005 (ip), vehicle: saline with Tween-80
[10] = dose: 100.0 mg/kg/injection, schedule: Q01DX005 (ip), vehicle: saline with Tween-80
[11] = dose: 100.0 mg/kg/injection, schedule: Q04DX003 (ip), vehicle: Klucel (hydroxypropylcellulose) (HPC)
[12] = dose: 200.0 mg/kg/injection, schedule: Q04DX003 (ip), vehicle: Klucel (hydroxypropylcellulose) (HPC)
[13] = dose: 400.0 mg/kg/injection, schedule: Q04DX003 (ip), vehicle: Klucel (hydroxypropylcellulose) (HPC)

Measured: T/C

O=C1C(=O)c2nc3ccccc3nc2-c2ccccc21
inactive: dose: 25.0 mg/kg/injection, schedule: Q01DX005 (ip), vehicle: water 103 % of control | dose: 50.0 mg/kg/injection, schedule: Q01DX005 (ip), vehicle: water 97 % of control | dose: 100.0 mg/kg/injection, schedule: Q01DX005 (ip), vehicle: water 100 % of control | dose: 200.0 mg/kg/injection, schedule: Q01DX005 (ip), vehicle: water 96 % of control | dose: 400.0 mg/kg/injection, schedule: Q01DX005 (ip), vehicle: water 104 % of control

C=C1CC[C@H]2C(C)=CC[C@@H]3[C@H](OC(=O)[C@H]3CN(C)C)[C@@H]12
inactive: dose: 100.0 mg/kg/injection, schedule: Q01DX001 (ip), vehicle: saline 98 % of control | dose: 200.0 mg/kg/injection, schedule: Q01DX001 (ip), vehicle: saline 104 % of control | dose: 400.0 mg/kg/injection, schedule: Q01DX001 (ip), vehicle: saline 105 % of control

COc1ccc([B-]23OCC[N+]2(CNC(=O)c2ccccc2O)CCO3)cc1 (configuration not stated)
inactive: [1] 103 % of control | [2] 112 % of control | [3] 105 % of control

FC(F)(F)C1(C(F)(F)F)O[Si]2(OC(C(F)(F)F)(C(F)(F)F)c3ccccc32)c2ccccc21 (tested in a mixture with another compound)
inactive: dose: 25.0 mg/kg/injection, schedule: Q04DX002 (ip), vehicle: Klucel (hydroxypropylcellulose) (HPC) 109 % of control | dose: 50.0 mg/kg/injection, schedule: Q04DX002 (ip), vehicle: Klucel (hydroxypropylcellulose) (HPC) 94 % of control | dose: 100.0 mg/kg/injection, schedule: Q04DX002 (ip), vehicle: Klucel (hydroxypropylcellulose) (HPC) 100 % of control and 102 % of control

Cc1ccc(S(=O)(=O)/N=S(\C)CCCl)cc1 (configuration not stated)
inactive: dose: 100.0 mg/kg/injection, schedule: Q04DX003 (ip), vehicle: suspension in saline 100 % of control | dose: 200.0 mg/kg/injection, schedule: Q04DX003 (ip), vehicle: suspension in saline 100 % of control | dose: 400.0 mg/kg/injection, schedule: Q04DX003 (ip), vehicle: suspension in saline 106 % of control

CN1NC(C)(c2ccccn2)SC1=S (configuration not stated)
inactive: [4] 98 % of control | [5] 91 % of control | [6] 90 % of control

O=C1c2cccc(NCC3CO3)c2C(=O)c2cccc(NCC3CO3)c21 (configuration not stated)
inactive: dose: 0.75 mg/kg/injection, schedule: Q01DX005 (ip), vehicle: Klucel (hydroxypropylcellulose) (HPC) 99 % of control | dose: 1.5 mg/kg/injection, schedule: Q01DX005 (ip), vehicle: Klucel (hydroxypropylcellulose) (HPC) 107 % of control | dose: 3.0 mg/kg/injection, schedule: Q01DX005 (ip), vehicle: Klucel (hydroxypropylcellulose) (HPC) 100 % of control | dose: 6.0 mg/kg/injection, schedule: Q01DX005 (ip), vehicle: Klucel (hydroxypropylcellulose) (HPC) 96 % of control

Cc1ncc(C(=O)O)n1Cc1ccccc1
inactive: dose: 60.0 mg/kg/injection, schedule: Q01DX005 (ip), vehicle: Klucel (hydroxypropylcellulose) (HPC) 94 % of control | dose: 120.0 mg/kg/injection, schedule: Q01DX005 (ip), vehicle: Klucel (hydroxypropylcellulose) (HPC) 93 % of control | dose: 240.0 mg/kg/injection, schedule: Q01DX005 (ip), vehicle: Klucel (hydroxypropylcellulose) (HPC) 93 % of control

COc1cc(NC(C)CCCN)c2ncccc2c1Oc1ccc(Cl)cc1 (configuration not stated)
inactive: [7] 91 % of control | [8] 90 % of control | [4] 94 % of control

CC1=NN(C(=O)c2ccncc2)C(=O)C1N=Nc1ccc(S(N)(=O)=O)cc1 (configuration not stated)
inactive: [4] 94 % of control | [5] 95 % of control | [6] 92 % of control

NC(=S)N/N=C/c1nc2ccccc2c(=O)n1-c1ccc(Cl)cc1
inactive: dose: 100.0 mg/kg/injection, schedule: Q04DX002 (ip), vehicle: saline with Tween-80 104 % of control | dose: 200.0 mg/kg/injection, schedule: Q04DX002 (ip), vehicle: saline with Tween-80 95 % of control | dose: 400.0 mg/kg/injection, schedule: Q04DX002 (ip), vehicle: saline with Tween-80 98 % of control

O=c1nc(-c2ccc3c(c2)OCO3)sc(=O)[nH]1
inactive: [4] 111 % of control | [5] 107 % of control | [6] 112 % of control

O=C1OCC/C1=C1\CCCO1
inactive: [7] 112 % of control and 97 % of control | [8] 100 % of control and 102 % of control | [4] 98 % of control and 99 % of control | [5] 102 % of control and 108 % of control and 116 % of control | [6] 112 % of control | dose: 400.0 mg/kg/injection, schedule: Q01DX009 (ip), vehicle: saline with Tween-80 113 % of control

O=C(N/N=C/c1ccccn1)c1ccccc1[O-].O=C(N/N=C/c1ccccn1)c1ccccc1[O-].[Co+2]
inactive: [1] 113 % of control | [2] 117 % of control

O=C(CCSSCCC(=O)ON1C(=O)CCC1=O)ON1C(=O)CCC1=O
inactive: dose: 6.25 mg/kg/injection, schedule: Q01DX009 (ip), vehicle: saline with Tween-80 100 % of control | [7] 105 % of control | [8] 112 % of control

C=C1CC2(CC3CC2C2CCCC32)OC1=O (configuration not stated)
inactive: dose: 100.0 mg/kg/injection, schedule: Q04DX002 (ip), vehicle: saline 100 % of control | dose: 200.0 mg/kg/injection, schedule: Q04DX002 (ip), vehicle: saline 94 % of control | dose: 400.0 mg/kg/injection, schedule: Q04DX002 (ip), vehicle: saline 98 % of control

C[C@H]1/C(=C/C(=O)OCCN(C)C)CC[C@H]2[C@H]1C(=O)C[C@H]1C(C)(C)[C@@H](O)CC[C@]21C
inactive: dose: 3.12 mg/kg/injection, schedule: Q01DX009 (ip), vehicle: saline 101 % of control | dose: 6.25 mg/kg/injection, schedule: Q01DX009 (ip), vehicle: saline 96 % of control | dose: 12.5 mg/kg/injection, schedule: Q01DX009 (ip), vehicle: saline 100 % of control | dose: 25.0 mg/kg/injection, schedule: Q01DX009 (ip), vehicle: saline 100 % of control

O=C(O)CCSCCCCCCCCCCSCCC(=O)O
inactive: [1] 98 % of control | [2] 93 % of control | [3] 86 % of control

COc1ccc2c(c1)CCC1C2CCC2(C)C1CCC2(C)N(C)C (configuration not stated)
inactive: dose: 6.25 mg/kg/injection, schedule: Q01DX005 (ip), vehicle: Klucel (hydroxypropylcellulose) (HPC) 102 % of control | dose: 12.5 mg/kg/injection, schedule: Q01DX005 (ip), vehicle: Klucel (hydroxypropylcellulose) (HPC) 102 % of control

COC1/C=C/OC2(C)Oc3c(C)c(O)c4c(O)c(c(/C=N/N5C(C)CN(Cc6cccc(C#N)c6)CC5C)c(O)c4c3C2=O)NC(=O)/C(C)=C\C=C\C(C)C(O)C(C)C(O)C(C)C(OC(C)=O)C1C (configuration not stated)
inactive: [7] 110 % of control | [8] 109 % of control | [4] 109 % of control and 118 % of control

CC1(C)[C@@H]2CC[C@]3(C)[C@H]4CC[C@]5(C)[C@@H](O)CC[C@H]5[C@@H]4CC[C@]3(O2)[C@@H]1O
inactive: [9] 91 % of control | [10] 91 % of control

O=C(Cc1ccccc1)Nc1ncc([N+](=O)[O-])s1
inactive: dose: 50.0 mg/kg/injection, schedule: Q01DX009 (ip), vehicle: Klucel (hydroxypropylcellulose) (HPC) 116 % of control | dose: 100.0 mg/kg/injection, schedule: Q01DX009 (ip), vehicle: Klucel (hydroxypropylcellulose) (HPC) 106 % of control | dose: 200.0 mg/kg/injection, schedule: Q01DX009 (ip), vehicle: Klucel (hydroxypropylcellulose) (HPC) 100 % of control

c1ccc(-c2csnn2)cc1
inactive: dose: 25.0 mg/kg/injection, schedule: Q04DX003 (ip), vehicle: saline with Tween-80 99 % of control | dose: 50.0 mg/kg/injection, schedule: Q04DX003 (ip), vehicle: saline with Tween-80 100 % of control | dose: 100.0 mg/kg/injection, schedule: Q04DX003 (ip), vehicle: saline with Tween-80 99 % of control | dose: 200.0 mg/kg/injection, schedule: Q04DX003 (ip), vehicle: saline with Tween-80 106 % of control

c1ccc(CCn2c(-c3ccccn3)nc3ccccc32)nc1
inactive: dose: 25.0 mg/kg/injection, schedule: Q01DX005 (ip), vehicle: Klucel (hydroxypropylcellulose) (HPC) 105 % of control | [1] 99 % of control | [2] 99 % of control

Clc1ccc(CC(Cn2ccnc2)c2ccccc2Cl)cc1 (configuration not stated)
inactive: [4] 94 % of control | [5] 86 % of control

COc1ccc(CN2COc3c(ccc4ccccc34)C2)cc1
inactive: [11] 97 % of control | [12] 96 % of control | [13] 100 % of control

CCNC(=O)N1CC(=O)Nc2ccccc21
inactive: [9] 101 % of control | [10] 96 % of control

NC(=O)Cc1nn[nH]n1
inactive: [11] 106 % of control | [12] 103 % of control | [13] 107 % of control

Reference: PubChem BioAssay AID330 (DTP/NCI, 2004)
